US20250262201A1, “COMPOUNDS AND METHODS USEFUL FOR STABILIZING PHENYLALANINE HYDROXYLASE MUTATIONS” (Agios Pharmaceuticals, Inc., priority 2022, published 2025)
Counter-ions that a name gives are not always drawn.

What follows are compounds tested against T1, human PAH with the R408W mutation (Homo sapiens, UniProt P00439, R408W) (assay: Cell Based Phenylalanine Flux Assay). Details: A375 R408W cells, 24 hrs with compound, then 20 μM sepiapterin and 800 μM 13C9,15N-Phenylalanine for 4 hours; 13C-Tyrosine by LC-MS; average where tested multiple times.
T1 construct: expressed in transfected cells
T1 sequence (P00439 1-452 R408W): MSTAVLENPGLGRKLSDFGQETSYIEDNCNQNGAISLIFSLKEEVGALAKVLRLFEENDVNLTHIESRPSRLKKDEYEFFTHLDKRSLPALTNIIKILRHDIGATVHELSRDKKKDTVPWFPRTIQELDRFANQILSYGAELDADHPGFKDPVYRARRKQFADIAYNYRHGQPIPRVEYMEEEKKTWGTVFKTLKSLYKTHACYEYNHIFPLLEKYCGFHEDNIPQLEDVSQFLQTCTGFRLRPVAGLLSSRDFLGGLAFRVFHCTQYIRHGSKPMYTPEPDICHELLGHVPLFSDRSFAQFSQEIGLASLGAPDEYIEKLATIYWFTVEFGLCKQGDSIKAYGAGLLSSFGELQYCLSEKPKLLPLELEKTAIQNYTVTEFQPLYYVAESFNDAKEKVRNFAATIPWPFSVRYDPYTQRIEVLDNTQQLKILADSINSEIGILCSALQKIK
Set-up: scale not given here
In the case of `CC1CN(C(=O)c2oc(C(C)(C)O)nc2C(F)(F)F)C(c2cc3ccccc3cn2)c2nc[nH]c21` [(4R,7R) diastereomer of (2-(2-hydroxypropan-2-yl)-4-(trifluo], the AC50 is reported as “E, E,”. In the case of `CC1CN(C(=O)c2oc(C(C)(C)O)nc2C(F)(F)F)C(c2cc3ccccc3cn2)c2nc[nH]c21` [(4R, 7S) diastereomer of (2-(2-hydroxypropan-2-yl)-4-(triflu], the AC50 is reported as “E, E,”. `CC1CN(C(=O)c2nnc(C(C)(C)O)o2)C(c2cc3ccccc3cn2)c2nc[nH]c21` [(4S, 7R) diastereomer of 2-{5-[4-(isoquinolin-3-yl)-7-methyl] was tested, and the AC50 was “E, E”. `Cc1nnc(C(=O)N2CC(C)c3[nH]cnc3C2c2cc3ccccc3cn2)o1` [(4S, 7R) diastereomer of 3-[7-methyl-5-(5-methyl-1,3,4-oxadi] was tested, and the AC50 was “E, E”. For `CC1CN(C(=O)c2ocnc2C(F)(F)F)C(c2cc3ccccc3cn2)c2nc[nH]c21` [(4S, 7R) diastereomer of 3-[7-methyl-5-[4-(trifluoromethyl)-], the AC50 was “E, E”. `CC1CN(C(=O)c2nnc(N3CCN(C)CC3)o2)C(c2cc3ccccc3cn2)c2nc[nH]c21` [(4S, 7R) diastereomer of 3-[7-methyl-5-[5-(4-methylpiperazin] was tested, and the AC50 was “E, E”. For `COCCNc1nnc(C(=O)N2CC(C)c3[nH]cnc3C2c2cc3ccccc3cn2)o1` [(4S, 7R) diastereomer of 5-[4-(isoquinolin-3-yl)-7-methyl-1H], the AC50 was “E, E”. With `CC1CN(C(=O)c2oc(C(C)(C)O)nc2C(F)(F)F)C(c2cc3ccccc3cn2)c2nc[nH]c21` [(4S, 7R) diastereomer of (2-(2-hydroxypropan-2-yl)-4-(triflu] the AC50 was “E, E”. `CC1CN(C(=O)c2oc(-c3ccccn3)nc2C(F)(F)F)C(c2cc3ccccc3cn2)c2nc[nH]c21` [(4S, 7R) diastereomer of (4-(isoquinolin-3-yl)-7-methyl-6,7-] was tested, and the AC50 was “E, E”. With `CC1CN(C(=O)c2nnc(C(C)(C)O)o2)C(c2cc3ccccc3cn2)c2nc[nH]c21` [(4S, 7S) diastereomer of 2-{5-[4-(isoquinolin-3-yl)-7-methyl] the AC50 was “E, E”. In the case of `Cc1ncoc1C(=O)N1CC(C)c2[nH]cnc2C1c1cc2ccccc2cn1` [(4S, 7S) diastereomer of 3-[7-methyl-5-(4-methyl-1,3-oxazole], the AC50 is reported as “E, E”. In the case of `Cc1nnc(C(=O)N2CC(C)c3[nH]cnc3C2c2cc3ccccc3cn2)o1` [(4S, 7S) diastereomer of 3-[7-methyl-5-(5-methyl-1,3,4-oxadi], the AC50 is reported as “E, E”. With `CC1CN(C(=O)c2nnc(N3CCN(C)CC3)o2)C(c2cc3ccccc3cn2)c2nc[nH]c21` [(4S, 7S) diastereomer of 3-[7-methyl-5-[5-(4-methylpiperazin] the AC50 was “E, E”. With `COCCNc1nnc(C(=O)N2CC(C)c3[nH]cnc3C2c2cc3ccccc3cn2)o1` [(4S, 7S) diastereomer of 5-[4-(isoquinolin-3-yl)-7-methyl-1H] the AC50 was “E, E”. In the case of `CC1CN(C(=O)c2oc(C(C)(C)O)nc2C(F)(F)F)C(c2cc3ccccc3cn2)c2nc[nH]c21` [(4S, 7S) diastereomer of (2-(2-hydroxypropan-2-yl)-4-(triflu], the AC50 is reported as “E, E”. `CC1CN(C(=O)c2oc(-c3ccccn3)nc2C(F)(F)F)C(c2cc3ccccc3cn2)c2nc[nH]c21` [(4S, 7S) diastereomer of (4-(isoquinolin-3-yl)-7-methyl-6,7-] was tested, and the AC50 was “E, E”.

Same assay, conditions: A375 R408W cells, 24 hrs with compound, then 20 μM sepiapterin and 800 μM 13C9,15N-Phenylalanine for 4 hours; 13C-Tyrosine by LC-MS; average where tested multiple times; read-out: AC50
In the case of `CC1CN(C(=O)c2nnc(N3CC(F)C3)o2)C(c2cc3ccccc3cn2)c2nc[nH]c21` [(4S, 7S) diastereomer of 3-[5-[5-(3-fluoroazetidin-1-yl)-1,3], the AC50 is reported as > 5000 nM. With `COCc1ccc2c(C(=O)N3CC(C)c4[nH]cnc4C3c3cc4ccccc4cn3)cnn2c1` [(4S, 7S) diastereomer of 3-[5-[6-(methoxymethyl)pyrazolo[1,5] the AC50 was 1000 to 5000 nM.

Same assay, conditions: A375 cells expressing human R408W PAH; 24 hrs compound incubation; 13C-Tyrosine by LC-MS; average where tested multiple times; read-out: AC50
For `O=C(CCc1nccs1)N1CCc2[nH]cnc2C1c1ccc2ccccc2n1` (stereo in doubt) [Example 272, (S)-1-(4-(quinolin-2-yl)-6,7-dihydro-1H-imidazo[4,5-c]pyridin-5(4H)-yl)-3-(thiazol-2-yl)propan-1-one], the AC50 was > 5000 nM. In the case of `O=C(c1cnc(-c2ccc(F)cn2)s1)N1CCc2[nH]cnc2C1c1cc2ccccc2cn1` (stereo in doubt) [Example 312, (R)-(2-(5-fluoropyridin-2-yl)thiazol-5-y1)(4-(isoquinolin-3-yl)-6,7-dihydro-1H-imidazo[4,5-c]pyridin-5(4H)-yl)methanone], the AC50 is reported as < 500 nM. For `O=C(c1nnc(C2CC2)o1)N1CCc2[nH]cnc2C1c1cc2ccccc2cn1` (stereo in doubt) [Example 327, (S)-(5-cyclopropyl-1,3,4-oxadiazol-2-yl)(4-(isoquinolin-3-y1)-6,7-dihydro-1H-imidazo[4,5-c]pyridin-5(4H)-yl)methanone], the AC50 was > 5000 nM. With `O=C(c1nnc(-c2ccc(F)cc2)o1)N1CCc2[nH]cnc2[C@@H]1c1ccc2ccccc2n1` [Example 12] the AC50 was > 5000 nM. `Cc1nc(C(C)(C)O)oc1C(=O)N1CCc2[nH]cnc2[C@H]1c1ccc2ccccc2n1` [Example 13] gave an AC50 of 1000 to 5000 nM. For `O=C(c1nnc(-c2c(F)cccc2F)o1)N1CCc2[nH]cnc2[C@@H]1c1ccc2ccccc2n1` [Example 24], the AC50 was > 5000 nM. For `Cc1nc(-c2cnn(C)c2)oc1C(=O)N1CCc2[nH]cnc2[C@H]1c1ccc2ccccc2n1` [Example 26], the AC50 was < 500 nM. `O=C(c1oc(-c2ccccn2)nc1C(F)F)N1CCc2[nH]cnc2[C@@H]1c1ccc2ccccc2n1` [Example 66] gave an AC50 of 1000 to 5000 nM. For `Cn1ncnc1C(=O)N1CCc2[nH]cnc2[C@@H]1c1ccc2ccccc2n1` [Example 79], the AC50 was > 5000 nM. With `Cn1cc(C(=O)N2CCc3[nH]cnc3[C@@H]2c2ccc3ccccc3n2)c(Cl)n1` [Example 87] the AC50 was 1000 to 5000 nM. `O=C(c1nnc(-c2ccn(C(F)F)n2)o1)N1CCc2[nH]cnc2[C@H]1c1ccc2ccccc2n1` [Example 96] gave an AC50 of 500 to 1000 nM. Compound `O=C(c1nnc(C2CC2)o1)N1CCc2[nH]cnc2[C@H]1c1ncc2ccccc2n1` [Example 139, (S)-(5-cyclopropyl-1,3,4-oxadiazol-2-yl)(4-(quinazolin-2-yl)-6,7-dihydro-1H-imidazo[4,5-c]pyridin-5(4H)-yl)methanone] has an AC50 of 500 to 1000 nM. In the case of `O=C(c1nnc(C2CC2)o1)N1CCc2[nH]cnc2[C@@H]1c1ncc2ccccc2n1` [Example 140, (R)-(5-cyclopropyl-1,3,4-oxadiazol-2-yl)(4-(quinazolin-2-yl)-6,7-dihydro-1H-imidazo[4,5-c]pyridin-5(4H)-yl)methanone], the AC50 is reported as > 5000 nM. With `Cc1nc(C(C)(C)O)oc1C(=O)N1CCc2[nH]cnc2[C@H]1c1ncc2ccccc2n1` [Example 141, (S)-(2-(2-hydroxypropan-2-yl)-4-methyloxazol-5-yl)(4-(quinazolin-2-yl)-6,7-dihydro-1H-imidazo[4,5-c]pyridin-5(4H)-yl)methanone hydrochloride] the AC50 was < 500 nM. With `Cc1nc(C(C)(C)O)oc1C(=O)N1CCc2[nH]cnc2[C@@H]1c1ncc2ccccc2n1` [Example 142, (R)-(2-(2-hydroxypropan-2-yl)-4-methyloxazol-5-yl)(4-(quinazolin-2-yl)-6,7-dihydro-1H-imidazo[4,5-c]pyridin-5(4H)-yl)methanone hydrochloride] the AC50 was > 5000 nM. Work on `Cn1cc(-c2nnc(C(=O)N3CCc4[nH]cnc4[C@H]3c3ncc4ccccc4n3)o2)cn1` [Example 143, (S)-(5-(1-methyl-1H-pyrazol-4-yl)-1,3,4-oxadiazol-2-yl)(4-(quinazolin-2-yl)-6,7-dihydro-1H-imidazo[4,5-c]pyridin-5(4H)-yl)methanone] yielded an AC50 of 500 to 1000 nM. For `Cn1cc(-c2nnc(C(=O)N3CCc4[nH]cnc4[C@@H]3c3ncc4ccccc4n3)o2)cn1` [Example 144, (R)-(5-(1-methyl-1H-pyrazol-4-yl)-1,3,4-oxadiazol-2-yl)(4-(quinazolin-2-yl)-6,7-dihydro-1H-imidazo[4,5-c]pyridin-5(4H)-yl)methanone], the AC50 was > 5000 nM. `O=C(c1nnc(-c2ccccn2)o1)N1CCc2[nH]cnc2[C@H]1c1ncc2ccccc2n1` [Example 145, (S)-(5-(pyridin-2-yl)-1,3,4-oxadiazol-2-yl)(4-(quinazolin-2-yl)-6,7-dihydro-1H-imidazo[4,5-c]pyridin-5(4H)-yl)methanone] was tested, and the AC50 was < 500 nM. `O=C(c1nnc(-c2ccccn2)o1)N1CCc2[nH]cnc2[C@@H]1c1ncc2ccccc2n1` [Example 146, (R)-(5-(pyridin-2-yl)-1,3,4-oxadiazol-2-yl)(4-(quinazolin-2-yl)-6,7-dihydro-1H-imidazo[4,5-c]pyridin-5(4H)-yl)methanone] gave an AC50 of 1000 to 5000 nM. With `N#Cc1ncoc1C(=O)N1CCc2[nH]cnc2[C@H]1c1ncc2ccccc2n1` [Example 147, (S)-5-(4-(quinazolin-2-yl)-4,5,6,7-tetrahydro-1H-imidazo[4,5-c]pyridine-5-carbonyl)oxazole-4-carbonitrile] the AC50 was < 500 nM. `N#Cc1ncoc1C(=O)N1CCc2[nH]cnc2[C@@H]1c1ncc2ccccc2n1` [Example 148, (R)-5-(4-(quinazolin-2-yl)-4,5,6,7-tetrahydro-1H-imidazo[4,5-c]pyridine-5-carbonyl)oxazole-4-carbonitrile] showed an AC50 of 1000 to 5000 nM. `O=C(c1cnco1)N1CCc2[nH]cnc2[C@H]1c1ncc2ccccc2n1` [Example 149, (S)-oxazol-5-yl(4-(quinazolin-2-yl)-6,7-dihydro-1H-imidazo[4,5-c]pyridin-5(4H)-yl)methanone] was tested, and the AC50 was < 500 nM.
